Test results published in PubChem BioAssay AID485276 (Southern Research Specialized Biocontainment Screening …, 2010).

Tested on: BSC cells, SV40 CPE inhibition
Experiment: SV40 cytopathic effect inhibition and cytotoxicity, confirmation, BSC cells, set 3 (AID 485276)
Conditions: measured here: BSC cell cytotoxicity

SMILES	TC50 [µM]
CC(C)(c1ccc(O)cc1)c1ccc(Cl)cc1	71.2
CC(C)c1cc(C(C)(C)c2ccc(O)c(C(C)C)c2)ccc1O	24
CC(C)(c1ccc(O)cc1)c1ccc(O)cc1	17
Oc1ccc(Cl)cc1Cc1cc(Cl)ccc1O	18
Oc1ccc(Oc2ccc(O)cc2)cc1	9.92
Oc1ccc(C2(c3ccc(O)cc3)CC2)cc1	196
Oc1c(Cl)cc(Cl)cc1Sc1cc(Cl)cc(Cl)c1O	21.2
